# Results: ChEMBL document CHEMBL3885881, “DrugMatrix”
# Organism: Rattus norvegicus
# Test: DrugMatrix - Regimen: Daily Repeat
# Type: toxicity, organism-based, Sprague-Dawley
# Parameters: regimen Daily Repeat, gender Male, age 6-8 weeks
# Details: in vivo, po, route oral GAVAGE, vehicle 100 % SALINE; for ALBUMIN / ALKALINE PHOSPHATASE / ASPARTATE AMINOTRANSFERASE / BLOOD UREA NITROGEN / CARBON DIOXIDE / CHLORIDE / CHOLESTEROL / CREATINE PHOSPHOKINASE / CREATININE / GLUCOSE / LACTATE DEHYDROGENASE / LIPASE / PHOSPHORUS / SODIUM / TOTAL BILIRUBIN / TOTAL PROTEIN / ALANINE AMINOTRANSFERASE: tissue Plasma; for ABSOLUTE BASOPHIL / ABSOLUTE EOSINOPHIL / ABSOLUTE LYMPHOCYTE / ABSOLUTE MONOCYTE / ABSOLUTE SEGMENTED NEUTROPHIL / BASOPHIL / EOSINOPHIL / ERYTHROCYTE COUNT / HEMATOCRIT / HEMOGLOBIN / LEUKOCYTE COUNT / LYMPHOCYTE / MEAN CORPUSCULAR HEMOGLOBIN / MEAN CORPUSCULAR HEMOGLOBIN CONCENTRATION / MONOCYTE / NEUTROPHIL / NUCLEATED RED BLOOD CELLS / PLATELET COUNT: tissue Blood
# [1] = 700 mg/kg, 72 h, dose level Low, time 3 day
# [2] = 700 mg/kg, […], dose level Low, time 7 day
# [3] = 1400 mg/kg, 72 h, dose level High, time 3 day
# [4] = 1400 mg/kg, 120 h, dose level High, time 5 day
# [5] = 2100 mg/kg, 72 h, dose level High, time 3 day
# [6] = 2100 mg/kg, […], dose level High, time 7 day
smiles,measurement,setting,value
CN(C)C=O [DIMETHYLFORMAMIDE],ALBUMIN,[1],3.93 G/DL
same,ALKALINE PHOSPHATASE,[1],282 u/L
same,ASPARTATE AMINOTRANSFERASE,[1],140.33 u/L
same,BLOOD UREA NITROGEN,[1],11.33 mg/dL
same,CARBON DIOXIDE,[1],29.33 mmol/L
same,CHLORIDE,[1],98.33 MEQ/L
same,CHOLESTEROL,[1],93.83 mg/dL
same,CREATINE PHOSPHOKINASE,[1],256.33 u/L
same,CREATININE,[1],0.18 mg/dL
same,GLUCOSE,[1],142 mg/dL
same,LACTATE DEHYDROGENASE,[1],131.83 u/L
same,LIPASE,[1],10.17 u/L
same,PHOSPHORUS,[1],10.13 mg/dL
same,SODIUM,[1],143.05 MEQ/L
same,TOTAL BILIRUBIN,[1],0.2 mg/dL
same,TOTAL PROTEIN,[1],5.9 G/DL
same,ABSOLUTE BASOPHIL,[2],0 CELLS/uL
same,ABSOLUTE EOSINOPHIL,[2],0 CELLS/uL
same,ABSOLUTE LYMPHOCYTE,[2],8451.4 CELLS/uL
same,ABSOLUTE MONOCYTE,[2],140.6 CELLS/uL
same,ABSOLUTE SEGMENTED NEUTROPHIL,[2],648 CELLS/uL
same,BASOPHIL,[2],0%
same,EOSINOPHIL,[2],0%
same,ERYTHROCYTE COUNT,[2],5.61 x10E6/uL
same,HEMATOCRIT,[2],35.36%
same,HEMOGLOBIN,[2],14.32 G/DL
same,LEUKOCYTE COUNT,[2],9.24 x10E3/uL
same,LYMPHOCYTE,[2],91%
same,MEAN CORPUSCULAR HEMOGLOBIN,[2],25.62 pg
same,MEAN CORPUSCULAR HEMOGLOBIN CONCENTRATION,[2],40.5 G/DL
same,MONOCYTE,[2],1.6%
same,NEUTROPHIL,[2],7.4%
same,NUCLEATED RED BLOOD CELLS,[2],0 /100WBC
same,PLATELET COUNT,[2],1220.6 x10E3/uL
same,ALANINE AMINOTRANSFERASE,[2],100.4 u/L
same,ALBUMIN,[2],4.46 G/DL
same,ALKALINE PHOSPHATASE,[2],218 u/L
same,ASPARTATE AMINOTRANSFERASE,[2],142.4 u/L
same,BLOOD UREA NITROGEN,[2],16.4 mg/dL
same,CARBON DIOXIDE,[2],30 mmol/L
same,CHLORIDE,[2],98.6 MEQ/L
same,CHOLESTEROL,[2],102 mg/dL
same,CREATINE PHOSPHOKINASE,[2],220.4 u/L
same,CREATININE,[2],0.23 mg/dL
same,GLUCOSE,[2],122.8 mg/dL
same,LACTATE DEHYDROGENASE,[2],232.2 u/L
same,LIPASE,[2],11 u/L
same,PHOSPHORUS,[2],12.18 mg/dL
same,SODIUM,[2],145.44 MEQ/L
same,TOTAL BILIRUBIN,[2],0.2 mg/dL
same,TOTAL PROTEIN,[2],6.06 G/DL
same,ABSOLUTE BASOPHIL,[3],0 CELLS/uL
same,ABSOLUTE EOSINOPHIL,[3],0 CELLS/uL
same,ABSOLUTE LYMPHOCYTE,[3],16367 CELLS/uL
same,ABSOLUTE MONOCYTE,[3],177 CELLS/uL
same,ABSOLUTE SEGMENTED NEUTROPHIL,[3],1156 CELLS/uL
same,BASOPHIL,[3],0%
same,EOSINOPHIL,[3],0%
same,ERYTHROCYTE COUNT,[3],6.79 x10E6/uL
same,HEMATOCRIT,[3],42.9%
same,HEMOGLOBIN,[3],16.15 G/DL
same,LEUKOCYTE COUNT,[3],17.7 x10E3/uL
same,LYMPHOCYTE,[3],92.5%
same,MEAN CORPUSCULAR HEMOGLOBIN,[3],23.8 pg
same,MEAN CORPUSCULAR HEMOGLOBIN CONCENTRATION,[3],37.65 G/DL
same,MONOCYTE,[3],1%
same,NEUTROPHIL,[3],6.5%
same,NUCLEATED RED BLOOD CELLS,[3],0 /100WBC
same,PLATELET COUNT,[3],447 x10E3/uL
same,ALANINE AMINOTRANSFERASE,[3],1328 u/L
same,ALBUMIN,[3],4.1 G/DL
same,ALKALINE PHOSPHATASE,[3],424 u/L
same,ASPARTATE AMINOTRANSFERASE,[3],1614.5 u/L
same,BLOOD UREA NITROGEN,[3],20 mg/dL
same,CARBON DIOXIDE,[3],33 mmol/L
same,CHLORIDE,[3],99.5 MEQ/L
same,CHOLESTEROL,[3],70.5 mg/dL
same,CREATINE PHOSPHOKINASE,[3],326.5 u/L
same,CREATININE,[3],0.47 mg/dL
same,GLUCOSE,[3],210.5 mg/dL
same,LACTATE DEHYDROGENASE,[3],461 u/L
same,LIPASE,[3],11 u/L
same,PHOSPHORUS,[3],9 mg/dL
same,SODIUM,[3],148.05 MEQ/L
same,TOTAL BILIRUBIN,[3],0.35 mg/dL
same,TOTAL PROTEIN,[3],5.8 G/DL
same,ABSOLUTE BASOPHIL,[4],0 CELLS/uL
same,ABSOLUTE EOSINOPHIL,[4],0 CELLS/uL
same,ABSOLUTE LYMPHOCYTE,[4],7335 CELLS/uL
same,ABSOLUTE MONOCYTE,[4],49.5 CELLS/uL
same,ABSOLUTE SEGMENTED NEUTROPHIL,[4],565.5 CELLS/uL
same,BASOPHIL,[4],0%
same,EOSINOPHIL,[4],0%
same,ERYTHROCYTE COUNT,[4],7.28 x10E6/uL
same,HEMATOCRIT,[4],45.7%
same,HEMOGLOBIN,[4],16.7 G/DL
same,LEUKOCYTE COUNT,[4],7.95 x10E3/uL
same,LYMPHOCYTE,[4],93%
same,MEAN CORPUSCULAR HEMOGLOBIN,[4],22.95 pg
same,MEAN CORPUSCULAR HEMOGLOBIN CONCENTRATION,[4],36.55 G/DL
same,MONOCYTE,[4],0.5%
same,NEUTROPHIL,[4],6.5%
same,NUCLEATED RED BLOOD CELLS,[4],0 /100WBC
same,PLATELET COUNT,[4],998 x10E3/uL
same,ALANINE AMINOTRANSFERASE,[4],5117.67 u/L
same,ALBUMIN,[4],4.53 G/DL
same,ALKALINE PHOSPHATASE,[4],286.67 u/L
same,ASPARTATE AMINOTRANSFERASE,[4],8354 u/L
same,BLOOD UREA NITROGEN,[4],21 mg/dL
same,CARBON DIOXIDE,[4],35 mmol/L
same,CHLORIDE,[4],92 MEQ/L
same,CHOLESTEROL,[4],136 mg/dL
same,CREATINE PHOSPHOKINASE,[4],493.33 u/L
same,CREATININE,[4],0.36 mg/dL
same,GLUCOSE,[4],145 mg/dL
same,LACTATE DEHYDROGENASE,[4],42966.33 u/L
same,LIPASE,[4],12.33 u/L
same,PHOSPHORUS,[4],13.03 mg/dL
same,SODIUM,[4],146.2 MEQ/L
same,TOTAL BILIRUBIN,[4],0.5 mg/dL
same,TOTAL PROTEIN,[4],7.33 G/DL
same,ABSOLUTE BASOPHIL,[5],0 CELLS/uL
same,ABSOLUTE EOSINOPHIL,[5],16 CELLS/uL
same,ABSOLUTE LYMPHOCYTE,[5],6718 CELLS/uL
same,ABSOLUTE MONOCYTE,[5],23.33 CELLS/uL
same,ABSOLUTE SEGMENTED NEUTROPHIL,[5],509.33 CELLS/uL
same,BASOPHIL,[5],0%
same,EOSINOPHIL,[5],0.17%
same,ERYTHROCYTE COUNT,[5],5.8 x10E6/uL
same,HEMATOCRIT,[5],38.27%
same,HEMOGLOBIN,[5],13.57 G/DL
same,LEUKOCYTE COUNT,[5],7.27 x10E3/uL
same,LYMPHOCYTE,[5],92.5%
same,MEAN CORPUSCULAR HEMOGLOBIN,[5],23.42 pg
same,MEAN CORPUSCULAR HEMOGLOBIN CONCENTRATION,[5],35.45 G/DL
same,MONOCYTE,[5],0.33%
same,NEUTROPHIL,[5],7%
same,NUCLEATED RED BLOOD CELLS,[5],0 /100WBC
same,PLATELET COUNT,[5],1059 x10E3/uL
same,ALANINE AMINOTRANSFERASE,[5],105.67 u/L
same,ALBUMIN,[5],4.47 G/DL
same,ALKALINE PHOSPHATASE,[5],224.5 u/L
same,ASPARTATE AMINOTRANSFERASE,[5],117.33 u/L
same,BLOOD UREA NITROGEN,[5],14.5 mg/dL
same,CARBON DIOXIDE,[5],31.33 mmol/L
same,CHLORIDE,[5],100.17 MEQ/L
same,CHOLESTEROL,[5],99.33 mg/dL
same,CREATINE PHOSPHOKINASE,[5],191 u/L
same,CREATININE,[5],0.22 mg/dL
same,GLUCOSE,[5],143.67 mg/dL
same,LACTATE DEHYDROGENASE,[5],109.83 u/L
same,LIPASE,[5],10.33 u/L
same,PHOSPHORUS,[5],9.67 mg/dL
same,SODIUM,[5],146.58 MEQ/L
same,TOTAL BILIRUBIN,[5],0.17 mg/dL
same,TOTAL PROTEIN,[5],6.25 G/DL
same,ABSOLUTE BASOPHIL,[6],0 CELLS/uL
same,ABSOLUTE EOSINOPHIL,[6],0 CELLS/uL
same,ABSOLUTE LYMPHOCYTE,[6],6108.5 CELLS/uL
same,ABSOLUTE MONOCYTE,[6],208.75 CELLS/uL
same,ABSOLUTE SEGMENTED NEUTROPHIL,[6],1557.75 CELLS/uL
same,BASOPHIL,[6],0%
same,EOSINOPHIL,[6],0%
same,ERYTHROCYTE COUNT,[6],6.06 x10E6/uL
same,HEMATOCRIT,[6],37.55%
same,HEMOGLOBIN,[6],14.95 G/DL
same,LEUKOCYTE COUNT,[6],7.88 x10E3/uL
same,LYMPHOCYTE,[6],79.5%
same,MEAN CORPUSCULAR HEMOGLOBIN,[6],24.67 pg
same,MEAN CORPUSCULAR HEMOGLOBIN CONCENTRATION,[6],39.83 G/DL
same,MONOCYTE,[6],2.5%
same,NEUTROPHIL,[6],18%
same,NUCLEATED RED BLOOD CELLS,[6],0 /100WBC
same,PLATELET COUNT,[6],396 x10E3/uL
same,ALANINE AMINOTRANSFERASE,[6],452.75 u/L
same,ALBUMIN,[6],4.22 G/DL
same,ALKALINE PHOSPHATASE,[6],271.25 u/L
same,ASPARTATE AMINOTRANSFERASE,[6],1219.25 u/L
same,BLOOD UREA NITROGEN,[6],15.25 mg/dL
same,CARBON DIOXIDE,[6],29 mmol/L
same,CHLORIDE,[6],103 MEQ/L
same,CHOLESTEROL,[6],75.75 mg/dL
same,CREATINE PHOSPHOKINASE,[6],261 u/L
same,CREATININE,[6],0.25 mg/dL
same,GLUCOSE,[6],147.75 mg/dL
same,LACTATE DEHYDROGENASE,[6],101.25 u/L
same,LIPASE,[6],10.25 u/L
same,PHOSPHORUS,[6],7.55 mg/dL
same,SODIUM,[6],147.12 MEQ/L
same,TOTAL BILIRUBIN,[6],0.33 mg/dL
same,TOTAL PROTEIN,[6],5.7 G/DL
